Laboratory results as given in ChEMBL document CHEMBL3046226, “Novel glycol benzyl ether herbicides: Herbicidal activity of 3,3a,5,9b-tetrahydro-2H-furo[3,2-c][2]benzopyran derivatives” (2006).
Values after ≈ are worked out from the molar mass of the structure shown.

Assays:
Format in all cases: functional
[1] = test system: Oryza sativa; experiment: Phytotoxicity in Oryza sativa (rice) assessed as assessed as growth rate at 10 g/acre by Oryza sativa (rice) injury assay
[2] = test system: Oryza sativa; experiment: Phytotoxicity in Oryza sativa (rice) assessed as assessed as growth rate at 30 g/acre by Oryza sativa (rice) injury assay
[3] = test system: Echinochloa crus-galli; experiment: Herbicidal activity against Echinochloa crus-galli (barnyard grass) assessed as growth rate at 1 g/acre
[4] = test system: Echinochloa crus-galli; experiment: Herbicidal activity against Echinochloa crus-galli (barnyard grass) assessed as growth rate at 3 g/acre
[5] = test system: Echinochloa crus-galli; experiment: Herbicidal activity against Echinochloa crus-galli (barnyard grass) assessed as growth rate at 30 g/acre
[6] = test system: Echinochloa crus-galli; experiment: Herbicidal activity against Echinochloa crus-galli (barnyard grass)

Structure (SMILES)	Activity [1]	Activity [2]	Activity [3]	Activity [4]	Activity [5]	MIC [6]
CC[C@H]1O[C@@H]2c3ccsc3CO[C@@H]2[C@H]1OCc1ccccc1F	91%	91%	6%	0%	0%	0.3 µg/mL (≈ 0.897 µM)
CC[C@H]1O[C@@H]2c3ccccc3CO[C@@H]2[C@H]1OCc1ccccc1C(F)(F)F	91%	91%	91%	71%	0%	0.4 µg/mL (≈ 1.06 µM)
CC[C@H]1O[C@@H]2c3ccccc3CO[C@@H]2[C@H]1OCc1cccs1	91%	91%	91%	11%	0%	0.8 µg/mL (≈ 2.53 µM)
CC[C@H]1O[C@@H]2c3ccccc3C(C)O[C@@H]2[C@H]1OCc1ccccc1C (stereo not given in full)	11%	11%	6%	0%	0%	0.2 µg/mL (≈ 0.591 µM)
CC[C@H]1O[C@@H]2c3ccccc3CO[C@@H]2[C@H]1OCc1ccccc1Cl	91%	91%		6%	0%	0.2 µg/mL (≈ 0.58 µM)
CC[C@H]1O[C@@H]2c3ccccc3CO[C@@H]2[C@H]1OCc1ccc2ccccc2c1	91%	91%	91%	91%	91%	> 10 µg/mL
CC[C@@H]1O[C@@H]2[C@@H](OCc3ccccc3F)[C@@H](CC)O[C@@H]2c2ccccc21		0%	91%	11%	0%	0.4 µg/mL (≈ 1.12 µM)
CC[C@H]1O[C@@H]2c3ccccc3CO[C@@H]2[C@H]1OCc1ccc(F)cc1	91%	71%	11%	0%	0%	1 µg/mL (≈ 3.05 µM)
CC[C@H]1O[C@@H]2c3ccccc3CO[C@@H]2[C@H]1OC(C)=O	91%	91%	91%	91%	91%	80 µg/mL (≈ 305 µM)
CC[C@H]1O[C@@H]2c3ccccc3CO[C@@H]2[C@H]1OCc1ccccc1F	71%	11%	11%	6%	0%	0.2 µg/mL (≈ 0.609 µM)
CC[C@H]1O[C@@H]2c3ccccc3C(=O)O[C@@H]2[C@H]1OCc1ccccc1C	91%	91%			11%	3 µg/mL (≈ 8.87 µM)
CC[C@H]1O[C@@H]2c3ccccc3CO[C@@H]2[C@H]1OCc1ccccc1C	11%	0%	11%	0%	0%	0.4 µg/mL (≈ 1.23 µM)
CC[C@H]1O[C@@H]2c3ccccc3CO[C@@H]2[C@H]1OCC1CCCCC1	91%	91%		91%	11%	10 µg/mL (≈ 31.6 µM)
CC[C@H]1O[C@@H]2c3ccccc3[C@@H](C)O[C@@H]2[C@H]1OCc1ccccc1F	91%	0%	11%	6%	0%	0.7 µg/mL (≈ 2.04 µM)
CC[C@H]1O[C@@H]2c3ccccc3CO[C@@H]2[C@H]1O[Si](C)(C)C(C)(C)C	91%	91%	91%	91%	91%	> 100 µg/mL
CCc1ccccc1CO[C@@H]1[C@H]2OCc3ccccc3[C@H]2O[C@@H]1CC	91%	91%		11%	0%	0.6 µg/mL (≈ 1.77 µM)
CC[C@H]1O[C@@H]2c3sccc3COC2[C@H]1OCc1ccccc1C (single isomer, unassigned)	91%	91%	6%	0%	0%	0.1 µg/mL (≈ 0.303 µM)

Structure (SMILES)	Activity [1]	Activity [2]	Activity [3]	Activity [4]	Activity [5]	MIC [6]
CC[C@H]1O[C@@H]2c3ccccc3CO[C@@H]2[C@H]1OC(=O)c1ccccc1	91%	91%		91%	6%	3.3 µg/mL (≈ 10.2 µM)
CC[C@H]1O[C@@H]2c3sccc3CO[C@@H]2[C@H]1OCc1ccccc1F	6%	0%	6%	0%	0%	0.1 µg/mL (≈ 0.299 µM)
CC[C@H]1O[C@@H]2c3ccccc3CO[C@@H]2[C@H]1OCc1cccc(F)c1	91%	91%	11%	0%	0%	0.3 µg/mL (≈ 0.914 µM)
CC[C@H]1O[C@@H]2[C@@H](OCc3ccccc3F)[C@@H](CC)O[C@@H]2c2ccccc21		71%	91%	91%	0%	0.8 µg/mL (≈ 2.24 µM)
CC[C@H]1O[C@@H]2c3ccccc3C(C)(CBr)O[C@@H]2[C@H]1OCc1ccccc1F (stereo not given in full)	91%	91%		71%	0%	> 3 µg/mL
CC[C@H]1O[C@@H]2c3ccccc3CO[C@@H]2[C@H]1OCc1ccsc1	91%	91%	91%	71%	0%	0.3 µg/mL (≈ 0.948 µM)
CC[C@H]1O[C@@H]2c3ccccc3CO[C@@H]2[C@H]1OCc1ccccc1	11%	0%	11%	6%	0%	0.4 µg/mL (≈ 1.29 µM)
CC[C@H]1O[C@@H]2c3ccccc3[C@H](C)O[C@@H]2[C@H]1OCc1ccccc1F	11%	0%	0%	0%	0%	0.2 µg/mL (≈ 0.584 µM)
CC[C@H]1O[C@@H]2c3ccccc3CO[C@@H]2[C@H]1OC1CCc2ccccc21 (stereo not given in full)	91%	91%		41%	0%	0.3 µg/mL (≈ 0.892 µM)
CC[C@H]1O[C@@H]2c3ccccc3CO[C@@H]2[C@H]1OC(C)c1ccccc1 (stereo not given in full)	91%	91%		41%	0%	3 µg/mL (≈ 9.25 µM)
CC[C@H]1O[C@@H]2c3ccsc3CO[C@@H]2[C@H]1OCc1ccccc1C	91%	91%		11%	0%	0.7 µg/mL (≈ 2.12 µM)
Cc1ccccc1CO[C@H]1C[C@]2(C(C)C)CC[C@@]1(C)O2 (relative stereo) [REL-CINMETHYLIN]	41%	11%	0%	0%	0%	0.1 µg/mL (≈ 0.364 µM)
CC[C@H]1O[C@@H]2c3occc3CO[C@@H]2[C@H]1OCc1ccccc1C	91%	71%	91%	41%	6%	0.2 µg/mL (≈ 0.636 µM)
CC[C@H]1O[C@@H]2c3ccccc3CO[C@@H]2[C@H]1O	91%	91%	91%	91%	91%	
CC[C@H]1O[C@@H]2c3ccccc3CO[C@@H]2[C@H]1OCc1cccc2ccccc12	91%	91%	91%	91%	91%	10 µg/mL (≈ 27.7 µM)
CC[C@H]1O[C@@H]2C[C@](C)(c3ccccc3)O[C@@H]2[C@H]1OCc1ccccc1F	91%	6%		6%	0%	0.1 µg/mL (≈ 0.281 µM)
CC[C@H]1O[C@@H]2c3ccccc3CO[C@@H]2[C@H]1OCc1ccccc1C#N	91%	91%	91%	91%	0%	3.2 µg/mL (≈ 9.54 µM)
